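Briefly, cells in 96-well plates were exposed to five compound concentrations for 48 h, and endpoints were estimated by linear interpolation. GI50 = concentration required for 50% inhibition of growth. TGI denotes the concentration required for complete inhibition of growth.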
Tested on: MDA-MB-468 breast
Experiment: NCI tumour cell line growth inhibition, 48 h

Compound: O=C(Nc1ccc(-n2ccc3c(NC(=O)c4ccccc4)nccc32)cc1)c1ccc(N2CCOCC2)c(C(F)(F)F)c1
- GI50: 1.74 µM
- TGI: 19.2 µM

Compound: COC1C(O)CC(OC2CC(OC3CC(O[C@@H]4C(=O)c5c(cc6cc(OC7CC(OC8CC(O)C(O)C(C)O8)C(O)C(C)O7)c(C)c(O)c6c5O)CC4[C@H](OC)[C@@H](O)C(C)=O)OC(C)C3O)OC(C)C2O)OC1C (stereo partly drawn)
- GI50: 0.0256 µM
- TGI: 2.65 µM

Compound: C=C(C)[C@@H]1CC[C@]2(CN)CC[C@]3(C)[C@H](CC[C@@H]4[C@@]5(C)CCC(N)[C@@](C)(CO)[C@@H]5CC[C@]43C)[C@@H]12 (stereo partly drawn)
- GI50: 1.77 µM
- TGI: 3.42 µM

Compound: C[C@@H]1OC(=O)NN=C1c1ccc(-c2ccc(F)cc2)c(C(F)(F)F)c1
- GI50: 1.74 µM
- TGI: 6.61 µM

Compound: C#C[C@]1(O)CC[C@H]2[C@@H]3CC=C4c5sc(Nc6ccc(C)cn6)nc5CC[C@]4(C)[C@H]3CC[C@@]21C
- GI50: 1.07 µM
- TGI: 3.13 µM

Compound: O=C1CCC(N2C(=O)c3cccc(NCCOCCOCCNC(=O)c4cc5c(o4)C(=O)c4ccccc4C5=O)c3C2=O)C(=O)N1 (stereo not drawn)
- GI50: 1.46 µM
- TGI: 3.88 µM

Compound: Cc1nc2ccccc2c(/C=C/c2ccccc2)c1C(=O)/C=C/c1ccccc1
- GI50: 1.79 µM
- TGI: 3.5 µM

Compound: COc1ccc(-c2cc(-c3ccc(Cl)cc3)nc(SCCCCCCC(=O)NO)n2)cc1
- GI50: 1.64 µM
- TGI: 7.19 µM

Compound: CCCC(=O)Nc1c(I)cc(I)c(CC(CC)C(=O)O)c1I (stereo not drawn)
- GI50: > 100 µM
- TGI: > 100 µM

Compound: O=C(Nc1ccc(N2CCNCC2)cn1)c1[nH]ncc1Nc1ncnc2sccc12
- GI50: 1.69 µM
- TGI: 3.42 µM

Compound: O=S(=O)(NCCNc1cc(-c2cn(-c3ccccc3)nc2-c2cccc(O)c2)ccn1)c1ccc(Br)cc1
- GI50: 2.7 µM
- TGI: 7.79 µM

Compound: Cc1ccc2c(n1)C(=O)C(Cl)=C(Nc1ccc(C#N)cc1)C2=O
- GI50: 1.78 µM
- TGI: 3.81 µM

Compound: CCCCCCCCCC[N+](C)(C)C
- GI50: 0.43 µM
- TGI: 2.79 µM

Compound: CCCCCCCCCCCCC(NC(C)=O)(C(=O)OCC)C(=O)OCC
- GI50: 4.67 µM
- TGI: 18.6 µM

Compound: CCCCCC(=C/c1ccccc1)/C=N/N=C(N)N
- GI50: 1.56 µM
- TGI: 3 µM

Compound: NC(Cc1c[nH]c2cc(F)ccc12)C(=O)O (stereo not drawn)
- GI50: 1010 µM
- TGI: > 2500 µM

Compound: Cc1ccccc1C[P+](c1ccccc1)(c1ccccc1)c1ccccc1
- GI50: 0.265 µM
- TGI: 1.16 µM

Compound: COc1c2occc2cc2ccc(=O)oc12
- GI50: > 100 µM
- TGI: > 100 µM

Compound: CC(C)=CCc1c(O)c(C(=O)CC(C)C)c(O)c2c(-c3ccccc3)cc(=O)oc12
- GI50: 7.74 µM
- TGI: 36.2 µM

Compound: COC(=O)CCCNC(=O)C(=O)c1c(O)c(O)c(C(C)C)c2cc(C)c(-c3c(C)cc4c(C(C)C)c(O)c(O)c(C(=O)C(=O)NCCCC(=O)OC)c4c3O)c(O)c12
- GI50: 0.364 µM
- TGI: 2.97 µM

Compound: CN1CCN(c2ccc(-c3cccc(CN4CCOCC4)c3)cc2NC(=O)c2c[nH]c(=O)cc2C(F)(F)F)CC1
- GI50: 20.2 µM
- TGI: 92.5 µM

Compound: Cc1cc(C)c(O)c(CNCCCNCc2cc(C)cc(C)c2O)c1
- GI50: 1.69 µM
- TGI: 3.24 µM

Compound: COCC(=O)NC/C=C/c1ccc2ncnc(Nc3ccc(Oc4ccc(C)nc4)c(C)c3)c2c1
- GI50: 1.96 µM
- TGI: 10.3 µM

Compound: C#CCOc1ccc(-c2csc(NC(=O)C=C)n2)cc1NS(=O)(=O)c1cccc2c(N(C)C)cccc12
- GI50: 0.823 µM
- TGI: 1.71 µM

Compound: CN1CCN(Cc2ccc(NC(=O)c3cccc(C#Cc4c(N)ncc5ccc(F)cc45)c3)cc2C(F)(F)F)CC1
- GI50: 0.888 µM
- TGI: 1.83 µM

Compound: CCN(CC)CCOc1ccc(Cc2ccccc2)cc1
- GI50: 16.2 µM
- TGI: 41.2 µM

Compound: COC(=O)[C@H](Cc1cn(C)cn1)NC(=O)[C@@H](NC(=O)Nc1cc(C(F)(F)F)cc(C(F)(F)F)c1)C(C)(C)C
- GI50: > 10 µM
- TGI: > 10 µM

Compound: COc1ccc(C(=O)c2cc(C)c(OC)c(C)c2)c(OC)c1N(C(=O)CCl)C(=O)CCl
- GI50: 0.0296 µM
- TGI: 1.37 µM

Compound: CC[C@]12C=CCN3CC[C@@]4(c5cc(NC(=O)COc6cc(O)c7c(=O)cc(-c8ccccc8)oc7c6)c(OC)cc5N(C)[C@H]4[C@@](O)(C(=O)OC)[C@@H]1OC(C)=O)[C@@H]32
- GI50: 1.52 µM
- TGI: 3 µM

From PubChem BioAssay (NCI)
